For 3 compounds, EC50 and Ki results are on record in ChEMBL document CHEMBL1134073 (Bioorg Med Chem Lett, 2001).

In general, EC50 refers to the midpoint of the concentration-response curve. A word on the Ki: it is the equilibrium dissociation constant of an inhibitor or competing ligand from its target.

The test system of assay [1] is MT4. Description: Antiviral activity against HIV in presence of 50% human serum in MT-4 cell was determined. It counts as functional, cell-based.
Assay [2] addresses Human immunodeficiency virus type 1 protease (Human immunodeficiency virus 1, UniProt Q72874). Description: Inhibitory activity against HIV protease.

For `Cc1cccc(C)c1OCC(=O)N[C@@H](Cc1ccccc1)[C@@H](O)C[C@H](Cc1ccccc1)NC(=O)[C@H](C(C)C)N1CCC(=O)NC1=O`, the concentration for a half-maximal effect (EC50) in assay [1] is 1410 nM. In assay [2], this compound yielded a Ki of 0.0007 nM.

Consider `Cc1cccc(C)c1OCC(=O)N[C@@H](Cc1ccccc1)[C@@H](O)C[C@H](Cc1ccccc1)NC(=O)[C@H](C(C)C)N1CCC(O)NC1=O` (stereo not given in full), for which, in assay [1], the EC50 is 2310 nM. Moreover, the Ki in assay [2] is 0.0012 nM.

Consider `Cc1cccc(C)c1OCC(=O)N[C@@H](Cc1ccccc1)[C@@H](O)C[C@H](Cc1ccccc1)NC(=O)[C@H](C(C)C)N1CCCNC1=O` [LOPINAVIR], for which, in assay [1], the EC50 is 104 nM.
